In PubChem BioAssay (NCI):
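Test compounds were applied to cells in 96-well plates for 48 hours at 5 doses. TGI: total growth inhibition.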

How the values were obtained:
Assay in all cases: NCI tumour cell line growth inhibition, 48 h
HOP-62 NSCLC = system: HOP-62 NSCLC
NCI-H23 lung = system: NCI-H23 lung
XF 498 CNS = system: XF 498 CNS
OVCAR-8 ovarian = system: OVCAR-8 ovarian
SF-268 CNS = system: SF-268 CNS
NCI-H226 lung = system: NCI-H226 lung
SNB-19 CNS = system: SNB-19 CNS
RXF 393 renal = system: RXF 393 renal
NCI-H522 lung = system: NCI-H522 lung
KM12 colon = system: KM12 colon
SK-MEL-2 melanoma = system: SK-MEL-2 melanoma
RPMI-8226 leukemia = system: RPMI-8226 leukemia
LXFL 529 NSCLC = system: LXFL 529 NSCLC
MALME-3M melanoma = system: MALME-3M melanoma
ACHN renal = system: ACHN renal
TK-10 renal = system: TK-10 renal
SK-MEL-5 melanoma = system: SK-MEL-5 melanoma
RXF-631 renal = system: RXF-631 renal
M19-MEL melanoma = system: M19-MEL melanoma
UO-31 renal = system: UO-31 renal
M14 melanoma = system: M14 melanoma
HCT-116 colon = system: HCT-116 colon
UACC-257 melanoma = system: UACC-257 melanoma
U251 CNS = system: U251 CNS
LOX IMVI melanoma = system: LOX IMVI melanoma
CCRF-CEM leukemia = system: CCRF-CEM leukemia
OVCAR-3 ovarian = system: OVCAR-3 ovarian
SW-620 colon = system: SW-620 colon
K-562 leukemia = system: K-562 leukemia
SN12C renal = system: SN12C renal
786-0 renal = system: 786-0 renal
OVCAR-5 ovarian = system: OVCAR-5 ovarian
HT29 colon = system: HT29 colon
IGROV1 ovarian = system: IGROV1 ovarian
HCC-2998 colon = system: HCC-2998 colon
SNB-75 CNS = system: SNB-75 CNS
OVCAR-4 ovarian = system: OVCAR-4 ovarian
HOP-18 NSCLC = system: HOP-18 NSCLC
SNB-78 CNS = system: SNB-78 CNS
SK-OV-3 ovarian = system: SK-OV-3 ovarian
SF-295 CNS = system: SF-295 CNS
HOP-92 NSCLC = system: HOP-92 NSCLC
A498 renal = system: A498 renal
EKVX NSCLC = system: EKVX NSCLC
DMS 114 small cell lung = system: DMS 114 small cell lung
COLO 205 colon = system: COLO 205 colon
KM20L2 colon = system: KM20L2 colon
SK-MEL-28 melanoma = system: SK-MEL-28 melanoma
A549 NSCLC = system: A549 NSCLC
UACC-62 melanoma = system: UACC-62 melanoma
SF-539 CNS = system: SF-539 CNS
DLD-1 colon = system: DLD-1 colon
NCI-H460 lung = system: NCI-H460 lung
HL-60(TB) leukemia = system: HL-60(TB) leukemia
HCT-15 colon = system: HCT-15 colon
DMS 273 small cell lung = system: DMS 273 small cell lung
MOLT-4 leukemia = system: MOLT-4 leukemia
CAKI-1 renal = system: CAKI-1 renal
SR leukemia = system: SR leukemia
SN12K1 renal = system: SN12K1 renal
P388 leukemia = system: P388 leukemia
MCF7 breast = system: MCF7 breast
P388/ADR leukemia = system: P388/ADR leukemia
NCI/ADR-RES ovarian = system: NCI/ADR-RES ovarian

## CC12CCCCC1(C)C2Sc1ccccc1 (stereo unspecified)
HOP-62 NSCLC
  TGI: > 100 µM
NCI-H23 lung
  TGI: > 100 µM
XF 498 CNS
  TGI: 66.3 µM
OVCAR-8 ovarian
  TGI: > 100 µM
SF-268 CNS
  TGI: > 100 µM
NCI-H226 lung
  TGI: > 100 µM
SNB-19 CNS
  TGI: > 100 µM
RXF 393 renal
  TGI: > 70.3 µM
NCI-H522 lung
  TGI: > 69.3 µM
KM12 colon
  TGI: > 100 µM
SK-MEL-2 melanoma
  TGI: 50.7 µM
RPMI-8226 leukemia
  TGI: 40.3 µM
LXFL 529 NSCLC
  TGI: > 100 µM
MALME-3M melanoma
  TGI: > 100 µM
ACHN renal
  TGI: > 100 µM
TK-10 renal
  TGI: > 100 µM
SK-MEL-5 melanoma
  TGI: > 63.5 µM
RXF-631 renal
  TGI: > 100 µM
M19-MEL melanoma
  TGI: > 94.5 µM
UO-31 renal
  TGI: > 100 µM
M14 melanoma
  TGI: > 100 µM
HCT-116 colon
  TGI: > 100 µM
UACC-257 melanoma
  TGI: > 100 µM
U251 CNS
  TGI: > 67.2 µM
LOX IMVI melanoma
  TGI: > 61 µM
CCRF-CEM leukemia
  TGI: 44.4 µM
OVCAR-3 ovarian
  TGI: > 100 µM
SW-620 colon
  TGI: > 100 µM
K-562 leukemia
  TGI: 19.9 µM
SN12C renal
  TGI: > 100 µM
786-0 renal
  TGI: > 100 µM
OVCAR-5 ovarian
  TGI: > 100 µM
HT29 colon
  TGI: > 100 µM
IGROV1 ovarian
  TGI: > 100 µM
HCC-2998 colon
  TGI: > 100 µM
SNB-75 CNS
  TGI: > 100 µM
OVCAR-4 ovarian
  TGI: > 100 µM
HOP-18 NSCLC
  TGI: > 100 µM
SNB-78 CNS
  TGI: > 80.1 µM
SK-OV-3 ovarian
  TGI: > 100 µM
SF-295 CNS
  TGI: > 100 µM
HOP-92 NSCLC
  TGI: 97 µM
A498 renal
  TGI: 98.2 µM
EKVX NSCLC
  TGI: > 96.8 µM
DMS 114 small cell lung
  TGI: > 77.8 µM
COLO 205 colon
  TGI: > 100 µM
KM20L2 colon
  TGI: > 100 µM
SK-MEL-28 melanoma
  TGI: > 100 µM
A549 NSCLC
  TGI: > 100 µM
UACC-62 melanoma
  TGI: > 100 µM
SF-539 CNS
  TGI: > 100 µM
DLD-1 colon
  TGI: > 100 µM
NCI-H460 lung
  TGI: > 100 µM
HL-60(TB) leukemia
  TGI: 36.9 µM
HCT-15 colon
  TGI: > 100 µM
DMS 273 small cell lung
  TGI: > 100 µM
MOLT-4 leukemia
  TGI: 41.6 µM
CAKI-1 renal
  TGI: > 100 µM

## COc1cc(C)c2c(c1C)OC(=O)c1c(C)c(Cl)c(O)c(C=O)c1O2
HOP-62 NSCLC
  TGI: 47 µM
NCI-H23 lung
  TGI: 32 µM
XF 498 CNS
  TGI: 49.5 µM
OVCAR-8 ovarian
  TGI: 27.4 µM
SF-268 CNS
  TGI: 65.1 µM
NCI-H226 lung
  TGI: 87.6 µM
SNB-19 CNS
  TGI: > 100 µM
KM12 colon
  TGI: 35.1 µM
RPMI-8226 leukemia
  TGI: 33.4 µM
LXFL 529 NSCLC
  TGI: 43.3 µM
MALME-3M melanoma
  TGI: 42.3 µM
ACHN renal
  TGI: 35.9 µM
TK-10 renal
  TGI: > 100 µM
SK-MEL-5 melanoma
  TGI: > 100 µM
RXF-631 renal
  TGI: 57.1 µM
UO-31 renal
  TGI: 76 µM
M14 melanoma
  TGI: 52 µM
HCT-116 colon
  TGI: 54.9 µM
UACC-257 melanoma
  TGI: 61.5 µM
LOX IMVI melanoma
  TGI: 42.8 µM
CCRF-CEM leukemia
  TGI: 47.3 µM
OVCAR-3 ovarian
  TGI: 9.5 µM
SW-620 colon
  TGI: > 100 µM
K-562 leukemia
  TGI: 45.6 µM
SN12C renal
  TGI: > 100 µM
786-0 renal
  TGI: 24.6 µM
OVCAR-5 ovarian
  TGI: 81.8 µM
HT29 colon
  TGI: 70.3 µM
IGROV1 ovarian
  TGI: 72.7 µM
HCC-2998 colon
  TGI: 47.5 µM
SNB-75 CNS
  TGI: 46.8 µM
SNB-78 CNS
  TGI: 50.6 µM
SK-OV-3 ovarian
  TGI: 65 µM
A498 renal
  TGI: 33.2 µM
EKVX NSCLC
  TGI: 26.4 µM
COLO 205 colon
  TGI: 76.7 µM
KM20L2 colon
  TGI: 69.5 µM
A549 NSCLC
  TGI: 44.3 µM
UACC-62 melanoma
  TGI: 43.6 µM
SF-539 CNS
  TGI: 26.6 µM
SR leukemia
  TGI: 31.9 µM
DLD-1 colon
  TGI: 59 µM
NCI-H460 lung
  TGI: 40.3 µM
HL-60(TB) leukemia
  TGI: 22 µM
DMS 273 small cell lung
  TGI: 37.2 µM
MOLT-4 leukemia
  TGI: 32 µM
CAKI-1 renal
  TGI: > 100 µM

## Nc1ccc2[nH]c3c(-c4ccccc4)nccc3c2c1
SN12K1 renal
  TGI: > 100 µM
HOP-62 NSCLC
  TGI: > 100 µM
NCI-H23 lung
  TGI: > 100 µM
XF 498 CNS
  TGI: > 100 µM
OVCAR-8 ovarian
  TGI: > 100 µM
SF-268 CNS
  TGI: > 100 µM
NCI-H226 lung
  TGI: > 86.1 µM
SNB-19 CNS
  TGI: > 100 µM
RXF 393 renal
  TGI: > 96.5 µM
NCI-H522 lung
  TGI: > 100 µM
KM12 colon
  TGI: > 100 µM
SK-MEL-2 melanoma
  TGI: > 100 µM
RPMI-8226 leukemia
  TGI: > 100 µM
MALME-3M melanoma
  TGI: > 100 µM
SK-MEL-5 melanoma
  TGI: > 31.6 µM
M19-MEL melanoma
  TGI: > 100 µM
UO-31 renal
  TGI: > 100 µM
HCT-116 colon
  TGI: > 100 µM
UACC-257 melanoma
  TGI: > 100 µM
P388 leukemia
  TGI: 46.5 µM
MCF7 breast
  TGI: > 100 µM
U251 CNS
  TGI: > 100 µM
LOX IMVI melanoma
  TGI: > 100 µM
CCRF-CEM leukemia
  TGI: > 100 µM
OVCAR-3 ovarian
  TGI: > 100 µM
SW-620 colon
  TGI: > 100 µM
K-562 leukemia
  TGI: > 100 µM
SN12C renal
  TGI: > 100 µM
P388/ADR leukemia
  TGI: > 100 µM
OVCAR-5 ovarian
  TGI: > 100 µM
HT29 colon
  TGI: > 100 µM
IGROV1 ovarian
  TGI: > 100 µM
NCI/ADR-RES ovarian
  TGI: > 100 µM
HCC-2998 colon
  TGI: 96.8 µM
SNB-75 CNS
  TGI: > 92.7 µM
OVCAR-4 ovarian
  TGI: > 75.5 µM
HOP-18 NSCLC
  TGI: > 100 µM
SNB-78 CNS
  TGI: > 100 µM
SK-OV-3 ovarian
  TGI: > 100 µM
SF-295 CNS
  TGI: > 100 µM
HOP-92 NSCLC
  TGI: > 100 µM
A498 renal
  TGI: > 100 µM
EKVX NSCLC
  TGI: > 100 µM
DMS 114 small cell lung
  TGI: > 100 µM
COLO 205 colon
  TGI: > 100 µM
KM20L2 colon
  TGI: > 100 µM
SK-MEL-28 melanoma
  TGI: > 100 µM
A549 NSCLC
  TGI: > 100 µM
UACC-62 melanoma
  TGI: > 80.8 µM
SF-539 CNS
  TGI: > 100 µM
DLD-1 colon
  TGI: > 100 µM
NCI-H460 lung
  TGI: > 100 µM
HL-60(TB) leukemia
  TGI: 38.2 µM
HCT-15 colon
  TGI: > 100 µM
DMS 273 small cell lung
  TGI: > 100 µM
MOLT-4 leukemia
  TGI: 22.8 µM
